Ring closure, yield after HPLC, EC50 and Emax data for five molecules are collected here from US20240343740A1, “MACROCYCLIC GLUCAGON-LIKE PEPTIDE 1 RECEPTOR AGONISTS” (Eli Lilly and Company, priority 2021, published 2024).

The conditions of data set [1]: cc_pd bond, 14-membered ring, 110.0 °C, 15.0 h.
In data set [2] the target is T1, human GLP-1R (Homo sapiens, UniProt P43220). The experiment in a line: GLP-1R CHO cell β-arrestin recruitment assay (PathHunter). The class given is cell-based. On the set-up: host or cells: CHO-K1. The settings on record: for EC50: CHO-K1 cells expressing Pro-Link-tagged Human GLP-1R and enzyme-acceptor-tagged β-arrestin-2, read-out: EC50 nM (SEM, n), hGLP1R induced β-Arrestin-2 recruitment relative EC50; for Emax: CHO-K1 cells, % stimulation with DMSO and GLP-1(7-36) as minimum and maximum controls, read-out: Emax % (SEM, n), hGLP1R induced β-Arrestin-2 recruitment. The protocol:
GLP-1R CHO Cell β-Arrestin Recruitment Assay
Activated G-protein coupled receptors can interact with the β-arrestin family of signaling proteins. The potency of compounds for GLP-1R induced arrestin recruitment is determined using the PathHunter Enzyme Fragment Complementation approach substantially as described (von Degenfeld et al., FASEB J., 2007 (14):3819-26 and Hamdouchi et al., J. Med Chem., 2016 59(24):10891-10916). CHO-K1 cells expressing Pro-Link-tagged Human GLP-1R and enzyme-acceptor-tagged β-arrestin-2 may be obtained from DiscoveRx and prepared as assay-ready frozen cells. Test compounds are solubilized in DMSO and serial dilutions are performed using the Echo acoustic dispenser (LabCyte). Assay media is the PathHunter Cell Assay Buffer (DiscoveRx) containing 0.1% w/v hydrolyzed Casein (Sigma). 100 nL of test compound solution is dispensed into 10 μL of assay media in a 384 well plate and then 10 μL of cells in assay media are added to give 5000 cells per well. Plates are incubated for 90 min in a 37° C./5% CO2 incubator and 10 μL of PathHunter detection reagent is added (DiscoveRx) and plates are incubated at RT for 60 min. Luminescence signal is measured. Compound concentration-response curves fit to a four-parameter logistic model to calculate potency as an EC50 and percent top (Emax). Data normalization to % stimulation is performed using DMSO and GLP-1(7-36) as minimum and maximum controls (Campbell et al, Assay Guidance Manual 2017).
Background: Arrestin recruitment assays detect the binding of arrestin to an activated receptor.
Target sequence in this assay (P43220 24-463): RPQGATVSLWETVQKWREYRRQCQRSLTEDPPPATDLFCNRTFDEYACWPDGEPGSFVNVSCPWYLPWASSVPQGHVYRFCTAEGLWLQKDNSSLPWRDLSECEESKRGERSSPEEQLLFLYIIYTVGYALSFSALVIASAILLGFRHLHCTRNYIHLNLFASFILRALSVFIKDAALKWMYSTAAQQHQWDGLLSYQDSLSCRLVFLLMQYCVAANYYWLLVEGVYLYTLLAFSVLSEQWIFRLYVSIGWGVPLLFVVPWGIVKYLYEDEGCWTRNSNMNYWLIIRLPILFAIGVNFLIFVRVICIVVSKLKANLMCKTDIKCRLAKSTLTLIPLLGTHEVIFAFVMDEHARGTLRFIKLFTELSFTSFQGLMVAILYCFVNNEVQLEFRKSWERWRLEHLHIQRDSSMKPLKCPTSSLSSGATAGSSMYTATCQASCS
Target sequence in this assay (P32121 whole entry partner): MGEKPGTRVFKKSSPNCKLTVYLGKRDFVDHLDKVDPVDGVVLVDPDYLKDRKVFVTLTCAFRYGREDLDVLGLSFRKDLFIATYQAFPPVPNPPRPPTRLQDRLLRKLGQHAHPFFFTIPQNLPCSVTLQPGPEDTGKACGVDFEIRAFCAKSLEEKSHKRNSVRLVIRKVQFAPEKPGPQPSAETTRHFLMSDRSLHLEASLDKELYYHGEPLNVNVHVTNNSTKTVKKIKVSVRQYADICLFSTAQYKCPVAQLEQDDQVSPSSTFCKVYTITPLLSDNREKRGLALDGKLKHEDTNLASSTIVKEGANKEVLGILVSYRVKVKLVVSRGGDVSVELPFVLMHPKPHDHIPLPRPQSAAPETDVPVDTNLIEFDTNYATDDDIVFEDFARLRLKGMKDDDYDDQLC

Data set [3] deals with T1, human GLP-1R. The experiment in a line: Human GLP-1 Receptor HEK293 cell cAMP assay, 581 fmol/mg GLP-1R expression density. The class given is cell-based. Also on record: expressed in transfected cells; host or cells: HEK293 clonal cell line. The settings on record: HEK293 cell line with 581 fmol/mg expression density of GLP-1R; for EC50: geometric mean, read-out: EC50 nM (SEM, n), intracellular cAMP response, relative EC50; for Emax: percent of maximal response to GLP-1(7-36)NH2, arithmetic mean, read-out: Emax % (SEM, n), intracellular cAMP response. A digest of the protocol:
(§1)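 HEK293 clonal lines expressing human GLP-1R, 20-point compound curves, 30 min at 37° C in DMEM with 0.1% casein, 250 μM IBMX, 0.5% DMSO. cAMP by HTRF, converted via standard curve to % of maximal human GLP-1(7-36)NH2 response; relative EC50 and Emax from four-parameter logistic fit.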
In general terms: cAMP levels reflect the balance of adenylyl cyclase and phosphodiesterase activity.
Target sequence in this assay (P43220 24-463): as the sequence (P43220 24-463) above

For data set [4], the target named is T1, human GLP-1R. The data set can be described thus: Human GLP-1 Receptor HEK293 cell cAMP assay, 104 fmol/mg GLP-1R expression density. Also on record: expressed in transfected cells; host or cells: HEK293 clonal cell line. The settings on record: HEK293 cell line with 104 fmol/mg expression density of GLP-1R; for EC50: geometric mean, read-out: EC50 nM (SEM, n), intracellular cAMP response, relative EC50; for Emax: percent of maximal response to GLP-1(7-36)NH2, arithmetic mean, read-out: Emax % (SEM, n), intracellular cAMP response. The class given is cell-based. A digest of the protocol:
as §1
Target sequence in this assay (P43220 24-463): as above

Where two headings read alike, the source gives them in different places.

For the molecule `CCOC(=O)Cc1cc(F)c2cc1COCCc1cc(C#N)ccc1COc1ccc(F)c-2n1`, the ring closure, yield after HPLC in data set [1] (from CCOC(=O)Cc1cc(F)c(Br)cc1COCCc1cc(C#N)ccc1COc1ccc(F)c(Br)n1, XPhos Pd G3/Me3SnSnMe3/CsF, 1,4-dioxane, 11.4 mM) is 29%.
Regarding `FC(F)(F)c1cc2c(cn1)COc1cccc(n1)-c1ccc(Cl)c(c1)COCC2`, the ring closure, yield after HPLC in data set [1] (from FC(F)(F)c1cc(CCOCc2cc(Br)ccc2Cl)c(COc2cccc(Br)n2)cn1, XPhos Pd G3) was determined as 14%.
A word on the EC50: it is the midpoint of the concentration-response curve. As usually defined, the Emax is the greatest response seen or fitted, relative to the assay's reference. Regarding `N#Cc1ccc2c(c1)CCCOc1cc(c(F)cc1Cc1nc3c(F)cc(C(=O)O)cc3n1C[C@@H]1CCO1)-c1cccc(n1)OC2` [Example 2, (S)-2-((5^4-Cyano-1^6-fluoro-3,9-dioxa-2(2,6)-pyridina-1(1,3),5(1,2)-dibenzenacyclononaphane-1^4-yl)methyl)-4-fluoro-1-(oxetan-2-ylmethyl)-1H-benzo[d]imidazole-6-carboxylic acid], the values for the 50% effective concentration (EC50) in data set [2], in data set [3] and in data set [4] were 133 nM, 8.05 nM and 17.5 nM, respectively. For the same molecule, the results for the maximal response (Emax) in data set [2], in data set [3] and in data set [4] were 52.7%, 98% and 72%, respectively.
As to `O=C(O)c1ccc2nc(Cc3ccc4cc3OCCCc3cc(Cl)ccc3COc3cccc-4n3)n(C[C@@H]3CCO3)c2c1` [Example 3, (S)-2-((5^4-Chloro-3,9-dioxa-2(2,6)-pyridina-1(1,3),5(1,2)-dibenzenacyclononaphane-1^4-yl)methyl)-1-(oxetan-2-ylmethyl)-1H-benzo[d]imidazole-6-carboxylic acid], the EC50 was 320 nM in data set [2], 44.1 nM in data set [3] and 132 nM in data set [4]. In addition, the Emax in data set [2] amounted to 34%; in data set [3] it was 102%; in data set [4], 84%.
Take `COc1cc(-c2nnn[nH]2)cc2c1nc(Cc1ccc3cc1OCCCc1cc(C#N)ccc1COc1cccc-3n1)n2C[C@@H]1CCO1` [Example 12, (S)-1^4-((4-Methoxy-1-(oxetan-2-ylmethyl)-6-(1H-tetrazol-5-yl)-1H-benzo[d]imidazol-2-yl)methyl)-3,9-dioxa-2(2,6)-pyridina-1(1,3),5(1,2)-dibenzenacyclononaphane-5^4-carbonitrile]: the EC50 is greater than 49500 nM in data set [2], 20.2 nM in data set [3] and 66.3 nM in data set [4]. The Emax in data set [2] was determined as 9.47%; in data set [3], 81.8%; in data set [4], 46.4%.
